ChEMBL document CHEMBL4229379, “Synthesis and structure-activity relationship of novel bisindole amidines active against MDR Gram-positive and Gram-negative bacteria” (Eur J Med Chem, 2018)
≈ marks a conversion by molar mass, not a printed value.

Tests used:
[1] = tested on: Citrobacter freundii; experiment: Antibacterial activity against Citrobacter freundii ATCC 43864 after 18 hrs by CLSI broth microdilution method; format: functional; conditions: ATCC 43864, 18 h
[2] = tested on: Pseudomonas aeruginosa; experiment: Antibacterial activity against Pseudomonas aeruginosa PAO1 after 18 hrs by CLSI broth microdilution method; format: functional; conditions: PAO1, 18 h
[3] = tested on: Pseudomonas aeruginosa; experiment: Antibacterial activity against Pseudomonas aeruginosa ATCC 27853 after 18 hrs by CLSI broth microdilution method; format: functional; conditions: ATCC 27853, 18 h
[4] = tested on: Escherichia coli; experiment: Antibacterial activity against extended-spectrum beta-lactamase deficient Escherichia coli 12-14 after 18 hrs by CLSI broth microdilution method; format: functional; conditions: 12-14, 18 h
[5] = tested on: Enterococcus faecalis; experiment: Antibacterial activity against vancomycin-resistant Enterococcus faecalis ATCC 51299 after 18 hrs by CLSI broth microdilution method; format: functional; conditions: ATCC 51299, 18 h
[6] = tested on: Acinetobacter calcoaceticus; experiment: Antibacterial activity against Acinetobacter calcoaceticus ATCC 19606 after 18 hrs by CLSI broth microdilution method; format: functional; conditions: ATCC 19606, 18 h
[7] = tested on: Enterococcus faecium; experiment: Antibacterial activity against vancomycin-resistant Enterococcus faecium ATCC 700221 after 18 hrs by CLSI broth microdilution method; format: functional; conditions: ATCC 700221, 18 h
[8] = tested on: Klebsiella pneumoniae; experiment: Antibacterial activity against new delhi metallo-beta-lactamase-1 harboring Klebsiella pneumoniae ATCC BAA-2146 after 18 hrs by CLSI broth microdilution method; format: functional; conditions: ATCC BAA-2146, 18 h
[9] = tested on: Enterococcus faecium; experiment: Antibacterial activity against vancomycin-sensitive Enterococcus faecium 12-3 after 18 hrs by CLSI broth microdilution method; format: functional; conditions: 12-3, 18 h
[10] = tested on: Enterococcus faecium; experiment: Antibacterial activity against vancomycin-resistant Enterococcus faecium 12-1 after 18 hrs by CLSI broth microdilution method; format: functional; conditions: 12-1, 18 h
[11] = tested on: Klebsiella pneumoniae; experiment: Antibacterial activity against extended-spectrum beta-lactamase harboring Klebsiella pneumoniae 12-8 after 18 hrs by CLSI broth microdilution method; format: functional; conditions: 12-8, 18 h
[12] = tested on: Staphylococcus epidermidis; experiment: Antibacterial activity against methicillin-sensitive Staphylococcus epidermidis 12-6 after 18 hrs by CLSI broth microdilution method; format: functional; conditions: 12-6, 18 h
[13] = tested on: Staphylococcus epidermidis; experiment: Antibacterial activity against methicillin-resistant Staphylococcus epidermidis 12-8 after 18 hrs by CLSI broth microdilution method; format: functional; conditions: 12-8, 18 h
[14] = tested on: Stenotrophomonas maltophilia; experiment: Antibacterial activity against Stenotrophomonas maltophilia ATCC 13636 after 18 hrs by CLSI broth microdilution method; format: functional; conditions: ATCC 13636, 18 h
[15] = tested on: Enterococcus faecalis; experiment: Antibacterial activity against vancomycin-sensitive Enterococcus faecalis ATCC 29212 after 18 hrs by CLSI broth microdilution method; format: functional; conditions: ATCC 29212, 18 h
[16] = tested on: Pseudomonas aeruginosa; experiment: Antibacterial activity against Pseudomonas aeruginosa 12-16 after 18 hrs by CLSI broth microdilution method; format: functional; conditions: 12-16, 18 h
[17] = tested on: Staphylococcus aureus; experiment: Antibacterial activity against methicillin-sensitive Staphylococcus aureus 12-28 after 18 hrs by CLSI broth microdilution method; format: functional; conditions: 12-28, 18 h
[18] = tested on: Klebsiella pneumoniae; experiment: Antibacterial activity against extended-spectrum beta-lactamase deficient Klebsiella pneumoniae 7 after 18 hrs by CLSI broth microdilution method; format: functional; conditions: Klebsiella pneumoniae, 7, 18 h
[19] = tested on: Staphylococcus aureus; experiment: Antibacterial activity against methicillin-resistant Staphylococcus aureus ATCC 33591 after 18 hrs by CLSI broth microdilution method; format: functional; conditions: ATCC 33591, 18 h
[20] = tested on: Klebsiella aerogenes; experiment: Antibacterial activity against Enterobacter aerogenes ATCC 13048 after 18 hrs by CLSI broth microdilution method; format: functional; conditions: ATCC 13048, 18 h
[21] = tested on: Providencia rettgeri; experiment: Antibacterial activity against Providencia rettgeri ATCC 31052 after 18 hrs by CLSI broth microdilution method; format: functional; conditions: ATCC 31052, 18 h
[22] = tested on: Enterococcus faecalis; experiment: Antibacterial activity against vancomycin-sensitive Enterococcus faecalis 12-5 after 18 hrs by CLSI broth microdilution method; format: functional; conditions: 12-5, 18 h
[23] = tested on: Staphylococcus aureus; experiment: Antibacterial activity against methicillin-sensitive Staphylococcus aureus ATCC 29213 after 18 hrs by CLSI broth microdilution method; format: functional; conditions: ATCC 29213, 18 h
[24] = tested on: Proteus vulgaris; experiment: Antibacterial activity against Proteus vulgaris ATCC 29905 after 18 hrs by CLSI broth microdilution method; format: functional; conditions: ATCC 29905, 18 h
[25] = tested on: Escherichia coli; experiment: Antibacterial activity against extended-spectrum beta-lactamase harboring Escherichia coli 12-15 after 18 hrs by CLSI broth microdilution method; format: functional; conditions: 12-15, 18 h
[26] = tested on: Enterococcus faecalis; experiment: Antibacterial activity against vancomycin-resistant Enterococcus faecalis 09-9 after 18 hrs by CLSI broth microdilution method; format: functional; conditions: 09-9, 18 h
[27] = tested on: Klebsiella pneumoniae; experiment: Antibacterial activity against extended-spectrum beta-lactamase harboring Klebsiella pneumoniae ATCC 700603 after 18 hrs by CLSI broth microdilution method; format: functional; conditions: Klebsiella pneumoniae, 700603, 18 h
[28] = tested on: Proteus mirabilis; experiment: Antibacterial activity against Proteus mirabilis 12-6 after 18 hrs by CLSI broth microdilution method; format: functional; conditions: 12-6, 18 h
[29] = tested on: Escherichia coli; experiment: Antibacterial activity against extended-spectrum beta-lactamase deficient Escherichia coli 1515 after 18 hrs by CLSI broth microdilution method; format: functional; conditions: Escherichia coli, 1515, 18 h
[30] = tested on: Klebsiella pneumoniae; experiment: Antibacterial activity against extended-spectrum beta-lactamase deficient Klebsiella pneumoniae 12-4 after 18 hrs by CLSI broth microdilution method; format: functional; conditions: 12-4, 18 h
[31] = Cytotoxicity against HEK293T cells assessed as reduction in cell viability after 48 hrs by MTS assay; format: cell-based, HEK-293T; conditions: human
[32] = tested on: Escherichia coli; experiment: Antibacterial activity against extended-spectrum beta-lactamase deficient Escherichia coli ATCC 25922 after 18 hrs by CLSI broth microdilution method; format: functional; conditions: ATCC 25922, 18 h
[33] = tested on: Staphylococcus epidermidis; experiment: Antibacterial activity against methicillin-sensitive Staphylococcus epidermidis ATCC 12228 after 18 hrs by CLSI broth microdilution method; format: functional; conditions: ATCC 12228, 18 h
[34] = tested on: Enterobacter cloacae; experiment: Antibacterial activity against Enterobacter cloacae ATCC 43560 after 18 hrs by CLSI broth microdilution method; format: functional; conditions: ATCC 43560, 18 h
[35] = tested on: Staphylococcus aureus; experiment: Antibacterial activity against methicillin-sensitive Staphylococcus aureus 15 after 18 hrs by CLSI broth microdilution method; format: functional; conditions: Staphylococcus aureus, 15, 18 h
[36] = tested on: Serratia marcescens; experiment: Antibacterial activity against Serratia marcescens ATCC 21074 after 18 hrs by CLSI broth microdilution method; format: functional; conditions: ATCC 21074, 18 h
[37] = tested on: Staphylococcus aureus; experiment: Antibacterial activity against methicillin-resistant Staphylococcus aureus 12-33 after 18 hrs by CLSI broth microdilution method; format: functional; conditions: 12-33, 18 h

Row | Compound | MIC [1] | MIC [2] | MIC [3] | MIC [4] | MIC [5] | MIC [6] | MIC [7] | MIC [8] | MIC [9] | MIC [10] | MIC [11] | MIC [12] | MIC [13] | MIC [14] | MIC [15] | MIC [16] | MIC [17] | MIC [18] | MIC [19] | MIC [20] | further results
1 | N=C(c1ccc2cc(-c3ccc(-c4cc5ccc(C(=N)N6CC=CC6)cc5[nH]4)cc3)[nH]c2c1)N1CC=CC1 | 8 mg/L (≈ 16.1 µM) | > 128 mg/L | > 128 mg/L | 16 mg/L (≈ 32.2 µM) | 8 mg/L (≈ 16.1 µM) | 32 mg/L (≈ 64.4 µM) | 16 mg/L (≈ 32.2 µM) | 8 mg/L (≈ 16.1 µM) | 16 mg/L (≈ 32.2 µM) | 16 mg/L (≈ 32.2 µM) | 16 mg/L (≈ 32.2 µM) | 2 mg/L (≈ 4.03 µM) | 4 mg/L (≈ 8.05 µM) | 32 mg/L (≈ 64.4 µM) | 8 mg/L (≈ 16.1 µM) | > 128 mg/L | 4 mg/L (≈ 8.05 µM) | 8 mg/L (≈ 16.1 µM) | 2 mg/L (≈ 4.03 µM) | 8 mg/L (≈ 16.1 µM) | MIC [21]: 16 mg/L (≈ 32.2 µM); MIC [22]: 8 mg/L (≈ 16.1 µM); MIC [23]: 4 mg/L (≈ 8.05 µM); MIC [24]: 32 mg/L (≈ 64.4 µM); MIC [25]: 8 mg/L (≈ 16.1 µM); MIC [26]: 8 mg/L (≈ 16.1 µM); MIC [27]: 32 mg/L (≈ 64.4 µM); MIC [28]: 64 mg/L (≈ 129 µM); MIC [29]: 16 mg/L (≈ 32.2 µM); MIC [30]: 16 mg/L (≈ 32.2 µM); CC50 at 48 h [31]: 12.4 mg/L (≈ 24.9 µM); MIC [32]: 8 mg/L (≈ 16.1 µM); MIC [33]: 1 mg/L (≈ 2.01 µM); MIC [34]: 8 mg/L (≈ 16.1 µM); MIC [35]: 4 mg/L (≈ 8.05 µM); MIC [36]: > 128 mg/L; MIC [37]: 4 mg/L (≈ 8.05 µM)
2 | CC(C)NC(=N)c1ccc2cc(-c3ccc(-c4cc5ccc(C(=N)NC(C)C)cc5[nH]4)cc3)[nH]c2c1 | 2 mg/L (≈ 4.2 µM) | 4 mg/L (≈ 8.39 µM) | 2 mg/L (≈ 4.2 µM) | 4 mg/L (≈ 8.39 µM) | 0.25 mg/L (≈ 0.525 µM) | 16 mg/L (≈ 33.6 µM) | 0.25 mg/L (≈ 0.525 µM) | 4 mg/L (≈ 8.39 µM) | 0.25 mg/L (≈ 0.525 µM) | 0.25 mg/L (≈ 0.525 µM) | 2 mg/L (≈ 4.2 µM) | 0.125 mg/L (≈ 0.262 µM) | 0.125 mg/L (≈ 0.262 µM) | 4 mg/L (≈ 8.39 µM) | 0.25 mg/L (≈ 0.525 µM) | 8 mg/L (≈ 16.8 µM) | 0.125 mg/L (≈ 0.262 µM) | 2 mg/L (≈ 4.2 µM) | 0.125 mg/L (≈ 0.262 µM) | 4 mg/L (≈ 8.39 µM) | MIC [21]: 4 mg/L (≈ 8.39 µM); MIC [22]: 0.5 mg/L (≈ 1.05 µM); MIC [23]: 0.125 mg/L (≈ 0.262 µM); MIC [24]: 4 mg/L (≈ 8.39 µM); MIC [25]: 2 mg/L (≈ 4.2 µM); MIC [26]: 0.25 mg/L (≈ 0.525 µM); MIC [27]: 8 mg/L (≈ 16.8 µM); MIC [28]: 16 mg/L (≈ 33.6 µM); MIC [29]: 4 mg/L (≈ 8.39 µM); MIC [30]: 2 mg/L (≈ 4.2 µM); CC50 at 48 h [31]: 12.3 mg/L (≈ 25.8 µM); MIC [32]: 2 mg/L (≈ 4.2 µM); MIC [33]: 0.125 mg/L (≈ 0.262 µM); MIC [34]: 4 mg/L (≈ 8.39 µM); MIC [35]: 0.125 mg/L (≈ 0.262 µM); MIC [36]: 8 mg/L (≈ 16.8 µM); MIC [37]: 0.125 mg/L (≈ 0.262 µM)
